From patent US20110173718A1, “HERBICIDE TOLERANT PLANTS” (SYNGENTA CROP PROTECTION, INC., priority 2008, published 2011)
“And” between values parts separate entries of the source, which are not always exact repeats. Identical values can stand only once. Like-named read-outs stand apart in the source and are kept apart here.

Legend:
[1] = test system: tobacco plants expressing Pseudomonas fluorescens HPPD; assay: Glasshouse spray test, Pseudomonas HPPD transgenic tobacco; type: in vivo; conditions: for % damage observed 16 DAT: Pseudomonas HPPD T1; for % damage at 7 DAT: C2 line (Pseudomonas HPPD, T2), individual plants
From the text: Tobacco plants expressing the wild-type HPPD gene of Pseudomonas fluorescens strain 87-79 under operable control of the double enhanced 35S CMV promoter region, Nos3′ terminator and TMV translational enhancer were provided as detailed in Example 4 of WO0246387.
Seed of wild-type tobacco plants, C2 tobacco plants and of the T1 progeny of a further Arabidopsis-HST expressing tobacco line, D2 were planted out in 3 inch pots, grown on, sprayed with compounds 1.1, 2.30 and 3.6 at the rates shown in table 5. Percent damage scores were assessed at 7 DAT. Aside from the presumptive non-transgenic segregants the D2 line containing the Arabidopis HST expression construct offered the highest level of tolerance to the two HST herbicides with the Psuedomonas HPPD, C2 line, offering only marginal tolerance under the conditions of this test.
Transgenic lines of tobacco, soyabean and corn etc. can be engineered to express various heterologous HPPDs derived from, for example Avena (SEQ ID #26), Wheat (SEQ ID #27), Pseudomonas fluorescens (SEQ ID # 25) and Shewanella colwelliana (SEQ ID #28) as, for example, described in WO 02/46387.
Single copy events amongst the T1 plant lines are identified by their 3:1 segregation ratio (wrt kanamycin and or herbicide) and by quantitative RT-PCR. Seed from the thus selected T1 tobacco (var Samsun) lines are sown in 3 inch diameter pots containing 50% peat, 50% John Innes soil no 3. After growth to the 3 leaf stage, plants are sprayed, as described above, in order to test for herbicide tolerance relative to like-treated non-transgenic tobacco plants.
Control tobacco plants and transgenic T1 plants expressing either the Pseudomonas or the wheat HPPD gene are sprayed at 37, 111, 333 and 1000 g/ha rates of HST inhibitors and, for example, compound 2.3.
Plants are assessed and scored for % damage at 16 DAT.

weeds = assay: Glasshouse weed control, HST inhibitors alone and with A22, post-emergence; type: in vivo; conditions: 14 DAT, single replicate; for pest or weed control at 15.625 g/ha / pest or weed control at 62.5 g/ha / pest or weed control at 250 g/ha: 336 h, read-out: % control score, Obs
How it was run: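 Weeds grown in glasshouse trays (24-27 C day, 18-21 C night, ~15 h photoperiod) and track-sprayed in 0.2% X77 at […], pre-emergence or post-emergence at about 7-12 d. HPPD inhibitor A22 applied at 2 g/ha alone or mixed with HST herbicides. Damage scored 0–100% at 14 DAT; synergy calculated by Colby formula.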

[2] = Digitaria sanguinalis, DIGSA, 15.625 g/ha alone
[3] = Digitaria sanguinalis, DIGSA, 62.5 g/ha alone
[4] = Digitaria sanguinalis, DIGSA, 250 g/ha alone
[5] = Echinochloa crus-galli, ECHCG, 15.625 g/ha alone
[6] = Echinochloa crus-galli, ECHCG, 62.5 g/ha alone
[7] = Echinochloa crus-galli, ECHCG, 250 g/ha alone
[8] = Setaria faberi, SETFA, 15.625 g/ha alone
[9] = Setaria faberi, SETFA, 62.5 g/ha alone
[10] = Setaria faberi, SETFA, 250 g/ha alone

O=c1c(-c2c(F)ccc(F)c2Cl)c(O)c2nccnc2n1CC(F)F [Compound 2.3]
% damage observed 16 DAT ([1]; 37 g/ha): 0%
% damage observed 16 DAT ([1]; 111 g/ha): 3%
% damage observed 16 DAT ([1]; 333 g/ha): 6%
% damage observed 16 DAT ([1]; 1000 g/ha): 10%
% control score, Obs (weeds; BRAPL, 15.625 g/ha alone): 20%
% control score, Obs (weeds; BRAPL, 62.5 g/ha alone): 50%
% control score, Obs (weeds; BRAPL, 250 g/ha alone): 70%
% control score, Obs (weeds; DIGSA, 15.625 g/ha alone): 2%
% control score, Obs (weeds; DIGSA, 62.5 g/ha alone): 35%
% control score, Obs (weeds; DIGSA, 250 g/ha alone): 45%
% control score, Obs (weeds; ECHCG, 15.625 g/ha alone): 5%
% control score, Obs (weeds; ECHCG, 62.5 g/ha alone): 30%
% control score, Obs (weeds; ECHCG, 250 g/ha alone): 40%
% control score, Obs (weeds; PANMI, 15.625 g/ha alone): 2%
% control score, Obs (weeds; PANMI, 62.5 g/ha alone): 55%
% control score, Obs (weeds; PANMI, 250 g/ha alone): 65%
% control score, Obs (weeds; SETFA, 15.625 g/ha alone): 5%
% control score, Obs (weeds; SETFA, 62.5 g/ha alone): 40%
% control score, Obs (weeds; SETFA, 250 g/ha alone): 60%
% control score, Obs (weeds; SIDSP, 15.625 g/ha alone): 10%
% control score, Obs (weeds; SIDSP, 62.5 g/ha alone): 40%
% control score, Obs (weeds; SIDSP, 250 g/ha alone): 55%

O=c1c(-c2c(Cl)ccc(Cl)c2Cl)c(O)c2nccnc2n1CC(F)F [Compound 2.14]
pest or weed control at 15.625 g/ha (weeds; BRAPL, 15.625 g/ha alone): 30%
pest or weed control at 62.5 g/ha (weeds; BRAPL, 62.5 g/ha alone): 60%
pest or weed control at 250 g/ha (weeds; BRAPL, 250 g/ha alone): 60%
pest or weed control at 15.625 g/ha (weeds; PANMI, 15.625 g/ha alone): 40%
pest or weed control at 62.5 g/ha (weeds; PANMI, 62.5 g/ha alone): 60%
pest or weed control at 250 g/ha (weeds; PANMI, 250 g/ha alone): 90%
pest or weed control at 15.625 g/ha (weeds; SIDSP, 15.625 g/ha alone): 15%
pest or weed control at 62.5 g/ha (weeds; SIDSP, 62.5 g/ha alone): 30%
pest or weed control at 250 g/ha (weeds; SIDSP, 250 g/ha alone): 50%
pest or weed control at 15.625 g/ha (weeds; [2]): 10%
pest or weed control at 62.5 g/ha (weeds; [3]): 20%
pest or weed control at 250 g/ha (weeds; [4]): 20%
pest or weed control at 15.625 g/ha (weeds; [5]): 30%
pest or weed control at 62.5 g/ha (weeds; [6]): 50%
pest or weed control at 250 g/ha (weeds; [7]): 65%
pest or weed control at 15.625 g/ha (weeds; [8]): 25%
pest or weed control at 62.5 g/ha (weeds; [9]): 60%
pest or weed control at 250 g/ha (weeds; [10]): 70%

CS(=O)(=O)c1ccc(C(=O)C2C(=O)CCCC2=O)c([N+](=O)[O-])c1 [Mesotrione, mesotrione, reference compound]
% damage observed 16 DAT ([1]; 37 g/ha): 3%
% damage observed 16 DAT ([1]; 111 g/ha): 3%
% damage observed 16 DAT ([1]; 333 g/ha): 43%
% damage observed 16 DAT ([1]; 1000 g/ha): 67%

Oc1c(Cl)c(F)nc(F)c1Cl [Compound 1.1, haloxydine]
% damage at 7 DAT ([1]; 25 gai/ha): 75%

CC(C)C(=O)Oc1c(-c2c(F)ccc(Br)c2Cl)c(=O)n(CC(F)F)c2nccnc12 [Compound 2.30]
% damage at 7 DAT ([1]; 150 gai/ha): 90% and 70% and 80% (2×)
% damage at 7 DAT ([1]; 300 gai/ha): 85%
% damage at 7 DAT ([1]; 450 gai/ha): 65% and 70% and 85% (2×)

O=c1c(-c2cc(C(F)(F)F)ccc2Cl)c(O)c2nccnc2n1CC(F)F [Compound 2.9]
pest or weed control at 15.625 g/ha (weeds; BRAPL, 15.625 g/ha alone): 15%
pest or weed control at 62.5 g/ha (weeds; BRAPL, 62.5 g/ha alone): 55%
pest or weed control at 250 g/ha (weeds; BRAPL, 250 g/ha alone): 70%
pest or weed control at 15.625 g/ha (weeds; PANMI, 15.625 g/ha alone): 30%
pest or weed control at 62.5 g/ha (weeds; PANMI, 62.5 g/ha alone): 50%
pest or weed control at 250 g/ha (weeds; PANMI, 250 g/ha alone): 70%
pest or weed control at 15.625 g/ha (weeds; SIDSP, 15.625 g/ha alone): 10%
pest or weed control at 62.5 g/ha (weeds; SIDSP, 62.5 g/ha alone): 20%
pest or weed control at 250 g/ha (weeds; SIDSP, 250 g/ha alone): 20%
pest or weed control at 15.625 g/ha (weeds; [2]): 2%
pest or weed control at 62.5 g/ha (weeds; [3]): 10%
pest or weed control at 250 g/ha (weeds; [4]): 15%
pest or weed control at 15.625 g/ha (weeds; [5]): 20%
pest or weed control at 62.5 g/ha (weeds; [6]): 40%
pest or weed control at 250 g/ha (weeds; [7]): 70%
pest or weed control at 15.625 g/ha (weeds; [8]): 20%
pest or weed control at 62.5 g/ha (weeds; [9]): 50%
pest or weed control at 250 g/ha (weeds; [10]): 65%

O=c1c(-c2c(F)ccc(Br)c2Cl)c(O)c2nccnc2n1CC(F)F [Compound 2.8]
pest or weed control at 15.625 g/ha (weeds; BRAPL, 15.625 g/ha alone): 20%
pest or weed control at 62.5 g/ha (weeds; BRAPL, 62.5 g/ha alone): 55%
pest or weed control at 250 g/ha (weeds; BRAPL, 250 g/ha alone): 85%
pest or weed control at 15.625 g/ha (weeds; PANMI, 15.625 g/ha alone): 40%
pest or weed control at 62.5 g/ha (weeds; PANMI, 62.5 g/ha alone): 50%
pest or weed control at 250 g/ha (weeds; PANMI, 250 g/ha alone): 80%
pest or weed control at 15.625 g/ha (weeds; SIDSP, 15.625 g/ha alone): 30%
pest or weed control at 62.5 g/ha (weeds; SIDSP, 62.5 g/ha alone): 45%
pest or weed control at 250 g/ha (weeds; SIDSP, 250 g/ha alone): 50%
pest or weed control at 15.625 g/ha (weeds; [2]): 5%
pest or weed control at 62.5 g/ha (weeds; [3]): 20%
pest or weed control at 250 g/ha (weeds; [4]): 60%
pest or weed control at 15.625 g/ha (weeds; [5]): 10%
pest or weed control at 62.5 g/ha (weeds; [6]): 40%
pest or weed control at 250 g/ha (weeds; [7]): 65%
pest or weed control at 15.625 g/ha (weeds; [8]): 5%
pest or weed control at 62.5 g/ha (weeds; [9]): 65%
pest or weed control at 250 g/ha (weeds; [10]): 60%

O=c1c(-c2c(F)ccc(Br)c2Cl)c(O)c2cccnc2n1CC(F)F [Compound 2.15]
pest or weed control at 15.625 g/ha (weeds; BRAPL, 15.625 g/ha alone): 0%
pest or weed control at 62.5 g/ha (weeds; BRAPL, 62.5 g/ha alone): 0%
pest or weed control at 250 g/ha (weeds; BRAPL, 250 g/ha alone): 5%
pest or weed control at 15.625 g/ha (weeds; PANMI, 15.625 g/ha alone): 0%
pest or weed control at 62.5 g/ha (weeds; PANMI, 62.5 g/ha alone): 0%
pest or weed control at 250 g/ha (weeds; PANMI, 250 g/ha alone): 0%
pest or weed control at 15.625 g/ha (weeds; SIDSP, 15.625 g/ha alone): 0%
pest or weed control at 62.5 g/ha (weeds; SIDSP, 62.5 g/ha alone): 10%
pest or weed control at 250 g/ha (weeds; SIDSP, 250 g/ha alone): 15%
pest or weed control at 15.625 g/ha (weeds; [2]): 0%
pest or weed control at 62.5 g/ha (weeds; [3]): 0%
pest or weed control at 250 g/ha (weeds; [4]): 0%
pest or weed control at 15.625 g/ha (weeds; [5]): 0%
pest or weed control at 62.5 g/ha (weeds; [6]): 0%
pest or weed control at 250 g/ha (weeds; [7]): 2%
pest or weed control at 15.625 g/ha (weeds; [8]): 0%
pest or weed control at 62.5 g/ha (weeds; [9]): 0%
pest or weed control at 250 g/ha (weeds; [10]): 2%
